Test results taken from ChEMBL document CHEMBL5357017, “Small Molecule Fluorescent Ligands for the Atypical Chemokine Receptor 3 (ACKR3)” (ACS Med Chem Lett, 2024).
Activity calls are given as the source filed them. The calls are words filed in the database; no cut-off is given here.

Experiments:
[1] = target: T1, Atypical chemokine receptor 3 (Homo sapiens, UniProt P25106); experiment: (§1) Binding affinity to NanoLuc tagged human wild type ACKR3 expressed in HEK293G cells using furimazine as NanoLuc substrate preincubated for 1 hr in dark in presence of (R)-N-(3-(2-fluorophenyl)-2methylallyl)-3,4,5-trimethoxyN-(2-(1-methylpyrrolidin-2yl)ethyl)benzamide followed by substrate addition and measured after 5 mins by NanoBRET competition binding assay; type: cell-based
[2] = target: T1, Atypical chemokine receptor 3; experiment: Binding affinity to ACKR3 (unknown origin) by [125I] CXCL12 displacement assay
[3] = target: T1, Atypical chemokine receptor 3; experiment: as §1, with “NanoBRET” for “NanoBRET competition binding”; type: cell-based
[4] = target: T1, Atypical chemokine receptor 3; experiment: Binding affinity to NanoLuc tagged human wild type ACKR3 expressed in HEK293G cells using furimazine as NanoLuc substrate preincubated for 1 hr in dark followed by substrate addition and measured after 5 mins by NanoBRET assay; type: cell-based; conditions: time 65.0 min
[5] = target: T1, Atypical chemokine receptor 3; experiment: (§2) Binding affinity to N-terminal SNAP-tagged ACKR3 (unknown origin) transfected in HEK293T cells assessed as internalization by measuring receptor colocalized intracellular fluorescence at 50 to 100 nM incubated for 30 mins by confocal microscopic analysis; type: cell-based; conditions: dose 50-100 nM
[6] = target: T1, Atypical chemokine receptor 3; experiment: as §2, with “nM preincubated with (R)-N-(3-(2-fluorophenyl)-2-methylallyl)-3,4,5-trimethoxy-N-(2-(1-methylpyrrolidin-2-yl)ethyl)benzamide for 30 mins followed by fluorescent compound addition and further” for “nM”; type: cell-based; conditions: dose 50-100 nM

T1 sequence (P25106 whole entry): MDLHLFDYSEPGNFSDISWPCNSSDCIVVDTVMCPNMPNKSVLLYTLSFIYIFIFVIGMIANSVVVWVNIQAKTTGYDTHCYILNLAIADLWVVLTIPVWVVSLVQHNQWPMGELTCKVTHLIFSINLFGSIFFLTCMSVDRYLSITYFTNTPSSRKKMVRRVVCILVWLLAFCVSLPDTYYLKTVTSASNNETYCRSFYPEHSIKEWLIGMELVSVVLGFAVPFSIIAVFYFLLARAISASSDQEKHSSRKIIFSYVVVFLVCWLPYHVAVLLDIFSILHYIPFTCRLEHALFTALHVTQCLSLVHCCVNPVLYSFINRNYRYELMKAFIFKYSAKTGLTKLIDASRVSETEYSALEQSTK

| SMILES | Ki [1] [nM] | Kd [3] [nM] | Activity [4] | also measured |
| --- | --- | --- | --- | --- |
| C/C(=C\c1ccccc1)CN(CCC1CCCN1C)C(=O)c1ccc2c(c1)OCCO2 (centres undefined) | 10000 |  |  |  |
| COc1cc(C(=O)N(CC[C@H]2CCCN2C)C/C(C)=C/c2ccccc2F)cc(OC)c1OC |  |  |  | EC50 [2]: 5.01 nM |
| Cc1ccc(C(=O)c2cn(Cc3cccc(Br)n3)c3ccccc3c2=O)cc1C | 39.8 |  |  |  |
| COc1cc(C(=O)N(CC[C@H]2CCCN2C)C/C(C)=C/c2ccccc2F)cc(OCCOCCNC(=O)CCCCCNC(=O)CCC2=[N+]3C(=Cc4c(C)cc(C)n4[B-]3(F)F)C=C2)c1OC |  | 81.3 | Active |  |
| COc1cc(C(=O)N(CC[C@@H]2CCCN2C)C/C(C)=C/c2ccccc2F)cc(OC)c1OC |  |  |  | EC50 [2]: 20 nM |
| COc1cc(C(=O)N(CC[C@H]2CCCN2C)C/C(C)=C/c2ccccc2F)cc(OCCOCCOCCNC(=O)CCCCCNC(=O)CCC2=[N+]3C(C=C2)Cc2c(C)cc(C)n2[B-]3(F)F)c1OC (some centres undefined) |  | 151 | Active |  |

The next lines start with results.

| Ki [1] [nM] | Kd [3] [nM] | Activity [4] | SMILES | also measured |
| --- | --- | --- | --- | --- |
| 631 |  |  | COc1ccc(C(=O)N(CCC2CCCN2C)C/C(C)=C/c2cccc(F)c2)cc1OC (centres undefined) |  |
| 251 |  |  | COc1ccc(C(=O)N(CCC2CCCN2C)C/C(C)=C/c2ccccc2F)cc1OC (centres undefined) |  |
|  | 12.9 | Active | COc1cc(C(=O)N(CC[C@H]2CCCN2C)C/C(C)=C/c2ccccc2F)cc(OCCNC(=O)CCCCCNC(=O)CCC2=[N+]3C(=Cc4c(C)cc(C)n4[B-]3(F)F)C=C2)c1OC | Activity [5]: Active; Activity [6]: inactive |
